Test [1] deals with (25-35) β-amyloid peptide fragment induced cognitive deficits model in rats. As to the kind of experiment: (25-35) β-amyloid induced cognitive deficits, intranasal administration, SRT. In kind it is in vivo, rat. Particulars: 1.28 mg/kg intranasally daily, 15 doses day 7 to 21; SRT 22 days after β-amyloid injection. An excerpt:
FIG. 9. Effects of intranasal administration of FGLs on the β-amyloid neurotoxicity induced deficit on performance in the Social Recognition Test. Rats received an intranasal administration of FGLs at the stated doses or vehicle daily at days 7 to 21 after i.c.v. administration of the (25-35) β-amyloid (A-β) fragment. 8-10 animals per group. Results are expressed as Means and SEM of Recognition Ratio and analyzed by one-sample t-test: **p<0.05.
In this study, the (25-35) β-amyloid peptide fragment induced cognitive deficits model in rats was used to investigate the dose-response (0.08, 0.32 or 1.28 mg/kg) effect of FGLs administered intranasally daily for 15 doses from day 7 to day 21 post β-amyloid peptide i.c.v. injection. The social memory performance was evaluated using the SRT, 22 days after the β-amyloid injection. A statistically significant impairment of short-term memory was observed as a consequence of the (25-35) β-amyloid neurotoxicity in the rats receiving the (25-35) β-amyloid fragment plus vehicle.

Test [2] has as its system rat model of (25-35) β-amyloid induced neurotoxicity. As to the kind of experiment: (25-35) β-amyloid induced neurotoxicity, subcutaneous administration: SRT and neuropathology. In kind it is in vivo. On the procedure: FIG. 8. The effect of FGLs (administered subcutaneously at the stated doses), or vehicle on the development of cognitive impairment (deficit in short-term social memory) and neurodegeneration after (25-35) β-amyloid (A-β) fragment neurointoxication. Comparisons of RR values to a hypothetical value 0.50 were carried using one-sample t-test. Intergroup comparisons between A-β groups were carried out using One Way ANOVA and Newman-Keuls post-hoc test and comparison between A-β vehicle and sham-operated animals by un-paired t-test.
In the rat model of (25-35) β-amyloid induced neurotoxicity (Delobette et al., 1997; Maurice et al., 1996), (25-35) aggregated β-amyloid neurotoxin is injected intracerebroventricularly leading to progressive deterioration of short-term memory (clearly detectable using the Social Recognition Test (SRT) with a 30-minute inter-trial interval (ITI) (Kogan et al., 2000), and to neurodegeneration in cortex and hippocampus characterized by increases in amyloid burden, tau phosphorylation and micro- and macro-glia activation, as well as neuronal loss (Klementiev et al., 2007).
In this study, 3.2, 0.8, 0.2 mg/kg of FGLs or sterile PBS were administered daily by subcutaneous injection. Administration was started 7 days after i.c.v. administration of an aggregated form of the (25-35) β-amyloid peptide fragment and continued until day 28 when the rats were terminated.
The social memory performance was estimated, using the SRT 21-22 days after i.c.v. administration of the β-amyloid fragment.
A significant neuroprotective effect of FGLs was detected in both areas. The minimum effective dose of FGLs for neuroprotection was 0.8 mg/kg, in hippocampus and 0.2 mg/kg in cingulate cortex.

Another test deals with adult male Wistar rats. Nature of the test: Morris Water Maze spatial learning. In kind it is in vivo, rat. Particulars: 2.5 mg/kg s.c. as a single dose 5, 3 and 1 day prior to training; versus vehicle. On the procedure:
FIG. 6. Effects of FGLs on spatial learning in the Morris Water Maze. Rats received FGLs or vehicle subcutaneously as a single dose of 2.5 mg/kg 5, 3 and 1 day prior to first test (trials 1-4 in above graph). The second test (trials 5-8 in above graph) took place the day after the first test. The results were analysed using analysis of variance (ANOVA) and Student's t-test. Data are mean escape latency(s) (±SEM) to find the platform over the 2 training days (t1-t4). *p<0.05, when compared with the Vehicle/Control group at the same time point.
The aim of this study was to investigate whether the subcutaneous administration of FGLs modulates spatial learning in adult male Wistar rats, using the Morris Water Maze as test system.
In the MWM test, rats are evaluated in the task to learn and remember the location of an escape platform hidden just under the water surface. In this study the test set-up was optimised for measuring learning. Rats received FGLs 2.5 mg/kg or vehicle subcutaneously as a single dose 5, 3 and 1 day prior the start of the training in the MWM.

The mark [3] stands for this setting: daily s.c. from day 7, neuropathology at day 28.

“Also recorded” adds a separate entry of the source. Where no end group is shown, it is not given here.

For the substance “FGLs: two identical 11 amino acid peptides (VAENQQGKSKA), forming a dimer through a linker molecule (iminodiacetic acid); peptide amide (VAENQQGKSKA-NH2; not fully specified; also: dimer of two identical peptides through iminodiacetic acid linker, attachment site not given here)”, the “deficit in social memory performance (SRT) compared with vehicle treated rats” value in test [1] is recorded as “significant (p<0.01) amelioration of the deficit”. For the same substance, the “short-term memory deficit in SRT compared to placebo-treated rats” value in test [2] (0.8 mg/kg s.c. daily, SRT 21-22 days after i.c.v. β-amyloid) was “statistically significant reduction in the short-term memory deficit”. Further, in test [2] (daily s.c. 0.2, 0.8, 3.2 mg/kg from day 7, SRT 21-22 days after i.c.v. β-amyloid), the “PRESENCE OF A SIGNIFICANT PEPTIDE EFFECT: SRT short-term social recognition memory” value was “YES (p < 0.01)^1”. For the same substance, in test [2] (daily s.c. from day 7, SRT 21-22 days after i.c.v. β-amyloid), the “EFFECTIVE DOSE OR DOSE RANGE: SRT short-term social recognition memory” value is reported as 0.8 mg/kg. In addition, in test [2] (setting [3]), the “EFFECTIVE DOSE OR DOSE RANGE: Density Intact neurons Cingulate cortex” value is reported as 0.8 mg/kg, the “EFFECTIVE DOSE OR DOSE RANGE: Density Intact neurons Hippocampus (CA3)” value is on record as 0.8 mg/kg, the “EFFECTIVE DOSE OR DOSE RANGE: Density damaged neurons Cingulate cortex” value was 0.2 mg/kg and the “EFFECTIVE DOSE OR DOSE RANGE: Density damaged neurons Hippocampus (CA3)” value stood at 0.8 mg/kg. Also, in test [2] (setting [3]), the “PRESENCE OF A SIGNIFICANT PEPTIDE EFFECT: Density Intact neurons Cingulate cortex” value is given as “Yes (p < 0.05)^3”, the “PRESENCE OF A SIGNIFICANT PEPTIDE EFFECT: Density Intact neurons Hippocampus (CA3)” value is on record as “YES (P < 0.05)”, the “PRESENCE OF A SIGNIFICANT PEPTIDE EFFECT: Density damaged neurons Cingulate cortex” value was “YES (p < 0.01,” and the “PRESENCE OF A SIGNIFICANT PEPTIDE EFFECT: Density damaged neurons Hippocampus (CA3)” value is “YES (p < 0.05)^3”. In test [2] (daily s.c., day 28), the “minimum effective dose for neuroprotection in cingulate cortex” value is 0.2 mg/kg and the “minimum effective dose for neuroprotection in hippocampus” value is 0.8 mg/kg. Besides, the “β-amyloid burden in the cingulate cortex” value in test [2] (daily s.c., day 28, large variability among animals) is “Neither the lesion, nor the peptide had significant effects; also recorded: did not reach significance”. In test [2] (subcutaneous administration), the “minimum effective dose for neuroprotection” value was found to be 0.2 mg/kg and the “minimum effective dose, social recognition memory deficit” value is listed as 0.8 mg/kg. The “spatial learning in Morris Water Maze (escape latency)” value in the test with adult male Wistar rats was “learned significantly faster than vehicle treated ones”.

These data come from patent US8470964B2, “Peptides derived from NCAM (FGLs)” (Enkam Pharmaceuticals A/S, priority 2007, dated 2013).
